Source: US9149038B2, “4-amino-6-(heterocyclic)picolinates and 6-amino-2-(heterocyclic)pyrimidine-4-carboxylates and their use as herbicides” (Dow AgroSciences LLC, priority 2013, dated 2015)
Like-named read-outs stand apart in the source and are kept apart here.

Tests used:
[1] = tested on: Key Grass and Sedge Weeds as well as Grass Crops; assay: Post-Emergent Test II: postemergent herbicidal activity, visual rating after 14 d (Table 8); format: in vivo; conditions: post-emergence, 336 h; for pest or weed control at 35 g/ha: 35 g ai/ha; for pest or weed control at 70 g/ha: 70 g ai/ha; for pest or weed control at 140 g/ha: 140 g ai/ha
Outline: (§1)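 Post-emergence foliar spray, 187 L/ha, first/second true leaf stage plants in potting mix (pH 6.0-6.8). Rates: top rate and 2-fold serial dilutions to 1/16×. Solvent-blank controls. Readout: visual % kill at 14 d.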

[2] = tested on: Key Broadleaf Weed and Crop Species; assay: Post-Emergent Test II: postemergent herbicidal activity, visual rating after 14 d (Table 7); format: in vivo; conditions: post-emergence, 336 h; for pest or weed control at 35 g/ha: 35 g ai/ha; for pest or weed control at 70 g/ha: 70 g ai/ha; for pest or weed control at 140 g/ha: 140 g ai/ha
Outline: as §1

[3] = barnyardgrass (Echinochloa crus-galli), read-out: Visual Growth Reduction (%) 14 Days After Application, ECHCG
[4] = giant foxtail (Setaria faberi), read-out: Visual Growth Reduction (%) 14 Days After Application, SETFA
[5] = maize, corn (Zea mays), read-out: Visual Growth Reduction (%) 14 Days After Application, ZEAMX
[6] = rice (Oryza sativa), read-out: Visual Growth Reduction (%) 14 Days After Application, ORYSA
[7] = wheat, spring (Triticum aestivum), read-out: Visual Growth Reduction (%) 14 Days After Application, TRZAS
[8] = yellow nutsedge (Cyperus esculentus), read-out: Visual Growth Reduction (%) 14 Days After Application, CYPES
[9] = ABUTH: velvetleaf (Abutilon theophrasti), read-out: Visual Growth Reduction (%) 14 Days After Application ABUTH
[10] = AMARE: redroot pigweed (Amaranthus retroflexus), read-out: Visual Growth Reduction (%) 14 Days After Application AMARE
[11] = BRSNN: oilseed rape, canola (Brassica napus), read-out: Visual Growth Reduction (%) 14 Days After Application BRSNN
[12] = CHEAL: lambsquarters (Chenopodium album), read-out: Visual Growth Reduction (%) 14 Days After Application CHEAL
[13] = EPHHL: wild poinsettia (Euphorbia heterophylla), read-out: Visual Growth Reduction (%) 14 Days After Application EPHHL
[14] = HELAN: sunflower (Helianthus annuus), read-out: Visual Growth Reduction (%) 14 Days After Application HELAN

Structure (SMILES): COC(=O)c1nc(-c2cccc3c2OCO3)cc(N)c1Cl [Compound 93]
- pest or weed control at 35 g/ha [1, 3]: 0 to 29%
- pest or weed control at 70 g/ha [1, 3]: 0 to 29%
- pest or weed control at 140 g/ha [1, 3]: 0 to 29%
- pest or weed control at 35 g/ha [1, 4]: 0 to 29%
- pest or weed control at 70 g/ha [1, 4]: 0 to 29%
- pest or weed control at 140 g/ha [1, 4]: 0 to 29%
- pest or weed control at 35 g/ha [1, 5]: 0 to 29%
- pest or weed control at 70 g/ha [1, 5]: 0 to 29%
- pest or weed control at 140 g/ha [1, 5]: 0 to 29%
- pest or weed control at 35 g/ha [1, 6]: 0 to 29%
- pest or weed control at 70 g/ha [1, 6]: 0 to 29%
- pest or weed control at 140 g/ha [1, 6]: 0 to 29%
- pest or weed control at 35 g/ha [1, 7]: 0 to 29%
- pest or weed control at 70 g/ha [1, 7]: 0 to 29%
- pest or weed control at 140 g/ha [1, 7]: 0 to 29%
- pest or weed control at 35 g/ha [1, 8]: 0 to 29%
- pest or weed control at 70 g/ha [1, 8]: 0 to 29%
- pest or weed control at 140 g/ha [1, 8]: 0 to 29%
- pest or weed control at 35 g/ha [2, 9]: 0 to 29%
- pest or weed control at 70 g/ha [2, 9]: 0 to 29%
- pest or weed control at 140 g/ha [2, 9]: 45 to 59%
- pest or weed control at 35 g/ha [2, 10]: 0 to 29%
- pest or weed control at 70 g/ha [2, 10]: 0 to 29%
- pest or weed control at 140 g/ha [2, 10]: 60 to 74%
- pest or weed control at 35 g/ha [2, 11]: 0 to 29%
- pest or weed control at 70 g/ha [2, 11]: 30 to 44%
- pest or weed control at 140 g/ha [2, 11]: 60 to 74%
- pest or weed control at 35 g/ha [2, 12]: 60 to 74%
- pest or weed control at 70 g/ha [2, 12]: 75 to 84%
- pest or weed control at 140 g/ha [2, 12]: 95 to 100%
- pest or weed control at 35 g/ha [2, 13]: 0 to 29%
- pest or weed control at 70 g/ha [2, 13]: 0 to 29%
- pest or weed control at 140 g/ha [2, 13]: 0 to 29%
- pest or weed control at 35 g/ha [2, 14]: 45 to 59%
- pest or weed control at 70 g/ha [2, 14]: 60 to 74%
- pest or weed control at 140 g/ha [2, 14]: 75 to 84%
